Measured values published in ChEMBL document CHEMBL2034905, “Synthesis of benzimidazolyl-1,3,4-oxadiazol-2ylthio-N-phenyl (benzothiazolyl) acetamides as antibacterial, antifungal and antituberculosis agents” (Eur J Med Chem, 2012).
Converted amounts (≈) assume the structure as drawn.

Tests used:
Salmonella typhi [1] = experiment: Antibacterial activity against Salmonella typhi MTCC 733 by agar streak dilution method; format: functional, Salmonella enterica subsp. enterica serovar Typhi; conditions: Salmonella enterica
Aspergillus clavatus [2] = experiment: Antifungal activity against Aspergillus clavatus MTCC 1323 by agar streak dilution method; format: functional
[3] = tested on: Mycobacterium tuberculosis; experiment: Antituberculosis activity against Mycobacterium tuberculosis H37Rv by Lowenstein-Jensen method; format: functional
Aspergillus clavatus [4] = experiment: Antifungal activity against Aspergillus clavatus MTCC 1323 at 100 ug/disc by paper disc diffusion technique; format: functional; conditions: read-out: IZ
Candida albicans [5] = experiment: Antifungal activity against Candida albicans MTCC 183 at 100 ug/disc by paper disc diffusion technique; format: functional; conditions: read-out: IZ
Bacillus cereus [6] = experiment: Antibacterial activity against Bacillus cereus MTCC 430 by agar streak dilution method; format: functional
Shigella flexneri [7] = experiment: Antibacterial activity against Shigella flexneri MTCC 1457 by agar streak dilution method; format: functional
[8] = Lipophilicity, log P of the compound; format: physicochemical; conditions: octanol/water
Aspergillus fumigatus [9] = experiment: Antifungal activity against Aspergillus fumigatus MTCC 343 by agar streak dilution method; format: functional
Pseudomonas aeruginosa [10] = experiment: Antibacterial activity against Pseudomonas aeruginosa MTCC 741 at 100 ug/disc by paper disc diffusion technique; format: functional; conditions: read-out: IZ
[11] = tested on: Mycobacterium tuberculosis; experiment: Antituberculosis activity against Mycobacterium tuberculosis H37Rv at 6.25 ug/ml by Lowenstein-Jensen method; format: functional
Staphylococcus aureus [12] = experiment: Antibacterial activity against Staphylococcus aureus MTCC 96 by agar streak dilution method; format: functional
Bacillus cereus [13] = experiment: Antibacterial activity against Bacillus cereus MTCC 430 at 100 ug/disc by paper disc diffusion technique; format: functional; conditions: read-out: IZ
Proteus vulgaris [14] = experiment: Antibacterial activity against Proteus vulgaris MTCC 1771 by agar streak dilution method; format: functional
Proteus vulgaris [15] = experiment: Antibacterial activity against Proteus vulgaris MTCC 1771 at 100 ug/disc by paper disc diffusion technique; format: functional; conditions: read-out: IZ
Aspergillus niger [16] = experiment: Antifungal activity against Aspergillus niger MTCC 282 at 100 ug/disc by paper disc diffusion technique; format: functional; conditions: read-out: IZ
Aspergillus fumigatus [17] = experiment: Antifungal activity against Aspergillus fumigatus MTCC 343 at 100 ug/disc by paper disc diffusion technique; format: functional; conditions: read-out: IZ
Salmonella typhi [18] = experiment: Antibacterial activity against Salmonella typhi MTCC 733 at 100 ug/disc by paper disc diffusion technique; format: functional, Salmonella enterica subsp. enterica serovar Typhi; conditions: Salmonella enterica, read-out: IZ
Aspergillus niger [19] = experiment: Antifungal activity against Aspergillus niger MTCC 282 by agar streak dilution method; format: functional
[20] = tested on: Mycobacterium tuberculosis; experiment: Antituberculosis activity against Mycobacterium tuberculosis H37Rv by BACTEC MGIT method; format: functional
Pseudomonas aeruginosa [21] = experiment: Antibacterial activity against Pseudomonas aeruginosa MTCC 741 by agar streak dilution method; format: functional
Klebsiella pneumoniae [22] = experiment: Antibacterial activity against Klebsiella pneumoniae MTCC 109 at 100 ug/disc by paper disc diffusion technique; format: functional; conditions: read-out: IZ
Shigella flexneri [23] = experiment: Antibacterial activity against Shigella flexneri MTCC 1457 at 100 ug/disc by paper disc diffusion technique; format: functional; conditions: read-out: IZ
Candida albicans [24] = experiment: Antifungal activity against Candida albicans MTCC 183 by agar streak dilution method; format: functional
Klebsiella pneumoniae [25] = experiment: Antibacterial activity against Klebsiella pneumoniae MTCC 109 by agar streak dilution method; format: functional
Escherichia coli [26] = experiment: Antibacterial activity against Escherichia coli MTCC 739 at 100 ug/disc by paper disc diffusion technique; format: functional; conditions: read-out: IZ
Staphylococcus aureus [27] = experiment: Antibacterial activity against Staphylococcus aureus MTCC 96 at 100 ug/disc by paper disc diffusion technique; format: functional; conditions: read-out: IZ
Escherichia coli [28] = experiment: Antibacterial activity against Escherichia coli MTCC 739 by agar streak dilution method; format: functional

Compound | MIC (Salmonella typhi [1]) [µg/mL] | MIC (Aspergillus clavatus [2]) [µg/mL] | MIC [3] [µg/mL] | zone of inhibition at 100 µg/disc (Aspergillus clavatus [4]) [mm] | zone of inhibition at 100 µg/disc (Candida albicans [5]) [mm] | MIC (Bacillus cereus [6]) [µg/mL] | MIC (Shigella flexneri [7]) [µg/mL] | logP [8] | MIC (Aspergillus fumigatus [9]) [µg/mL] | zone of inhibition at 100 µg/disc (Pseudomonas aeruginosa [10]) [mm] | inhibition at 6.25 µg/mL [11] [%] | MIC (Staphylococcus aureus [12]) [µg/mL] | zone of inhibition at 100 µg/disc (Bacillus cereus [13]) [mm] | MIC (Proteus vulgaris [14]) [µg/mL] | zone of inhibition at 100 µg/disc (Proteus vulgaris [15]) [mm] | zone of inhibition at 100 µg/disc (Aspergillus niger [16]) [mm] | zone of inhibition at 100 µg/disc (Aspergillus fumigatus [17]) [mm] | zone of inhibition at 100 µg/disc (Salmonella typhi [18]) [mm] | MIC (Aspergillus niger [19]) [µg/mL] | MIC [20] [µg/mL] | other results
Cc1ccc(NC(=O)CSc2nnc(Cn3cnc4ccccc43)o2)cc1 | 100 (≈ 264 µM) | 100 (≈ 264 µM) | 100 (≈ 264 µM) | 12 | 14 | 100 (≈ 264 µM) | 100 (≈ 264 µM) | 2.98 | 100 (≈ 264 µM) | 14 | 95 | 100 (≈ 264 µM) | 13 | 100 (≈ 264 µM) | 14 | < 10 | < 10 | 17 | 100 (≈ 264 µM) | > 6.25 | MIC (Pseudomonas aeruginosa [21]): 100 µg/mL (≈ 264 µM); zone of inhibition at 100 µg/disc (Klebsiella pneumoniae [22]): < 10 mm; zone of inhibition at 100 µg/disc (Shigella flexneri [23]): < 10 mm; MIC (Candida albicans [24]): 100 µg/mL (≈ 264 µM); MIC (Klebsiella pneumoniae [25]): 100 µg/mL (≈ 264 µM); zone of inhibition at 100 µg/disc (Escherichia coli [26]): 14 mm; zone of inhibition at 100 µg/disc (Staphylococcus aureus [27]): 11 mm; MIC (Escherichia coli [28]): 100 µg/mL (≈ 264 µM)
COc1ccc2nc(NC(=O)CSc3nnc(Cn4cnc5ccccc54)o3)sc2c1 | 50 (≈ 110 µM) | 50 (≈ 110 µM) | 12.5 (≈ 27.6 µM) | 22 | 25 | 50 (≈ 110 µM) | 6.25 (≈ 13.8 µM) | 3.56 | 100 (≈ 221 µM) | 12 | 99 | 25 (≈ 55.2 µM) | 20 | 12.5 (≈ 27.6 µM) | 26 | 17 | < 10 | 20 | 50 (≈ 110 µM) | > 6.25 | MIC (Pseudomonas aeruginosa [21]): 100 µg/mL (≈ 221 µM); zone of inhibition at 100 µg/disc (Klebsiella pneumoniae [22]): 21 mm; zone of inhibition at 100 µg/disc (Shigella flexneri [23]): 24 mm; MIC (Candida albicans [24]): 25 µg/mL (≈ 55.2 µM); MIC (Klebsiella pneumoniae [25]): 50 µg/mL (≈ 110 µM); zone of inhibition at 100 µg/disc (Escherichia coli [26]): 18 mm; zone of inhibition at 100 µg/disc (Staphylococcus aureus [27]): 19 mm; MIC (Escherichia coli [28]): 50 µg/mL (≈ 110 µM)
CCOc1ccc2nc(NC(=O)CSc3nnc(Cn4cnc5ccccc54)o3)sc2c1 | 50 (≈ 107 µM) | 100 (≈ 214 µM) | 50 (≈ 107 µM) | 17 | 26 | 50 (≈ 107 µM) | 50 (≈ 107 µM) | 3.9 | 100 (≈ 214 µM) | 18 | 99 | 12.5 (≈ 26.8 µM) | 21 | 12.5 (≈ 26.8 µM) | 26 | 20 | 13 | 19 | 25 (≈ 53.6 µM) | > 6.25 | MIC (Pseudomonas aeruginosa [21]): 50 µg/mL (≈ 107 µM); zone of inhibition at 100 µg/disc (Klebsiella pneumoniae [22]): 21 mm; zone of inhibition at 100 µg/disc (Shigella flexneri [23]): 19 mm; MIC (Candida albicans [24]): 25 µg/mL (≈ 53.6 µM); MIC (Klebsiella pneumoniae [25]): 50 µg/mL (≈ 107 µM); zone of inhibition at 100 µg/disc (Escherichia coli [26]): 24 mm; zone of inhibition at 100 µg/disc (Staphylococcus aureus [27]): 22 mm; MIC (Escherichia coli [28]): 25 µg/mL (≈ 53.6 µM)
